Measured values from patent US10093713B2, “GIP-GLP-1 dual agonist compounds and methods” (priority 2013, dated 2018).
Like-named read-outs stand apart in the source and are kept apart here. *1 amine or outer side, *2 acyl side, *3 side chain or, on linkers, in order; H or OH if unused. Where a SMILES comes first, the peptide text is derived from it. Side-chain parts run from the residue outwards. [ ]: non-standard residue; d: D form. The star is where a group is joined. X1 = O=C(O)CCCCCCCCCCCCCCCCCCC(=O)N1CCN(CC(=O)*)CC1; C20 diacid = O=C(O)CCCCCCCCCCCCCCCCCCC(=O)*; γGlu = O=C(O)[C@H](CCC(=O)[*:2])N[*:1]; Dap = NC[C@H](N)C(=O)O; AEEA = NCCOCCOCC(=O)O; Aib = CC(C)(N)C(=O)O

Legend:
human GIP R = target: T1, human GIP R (Homo sapiens, UniProt P48546); experiment: Human GIP receptor (GIP R) activity assay, cAMP induction (AlphaScreen) in HEK293 cells; format: cell-based
T1 construct: expressed in transfected cells
T1 sequence (P48546 22-466): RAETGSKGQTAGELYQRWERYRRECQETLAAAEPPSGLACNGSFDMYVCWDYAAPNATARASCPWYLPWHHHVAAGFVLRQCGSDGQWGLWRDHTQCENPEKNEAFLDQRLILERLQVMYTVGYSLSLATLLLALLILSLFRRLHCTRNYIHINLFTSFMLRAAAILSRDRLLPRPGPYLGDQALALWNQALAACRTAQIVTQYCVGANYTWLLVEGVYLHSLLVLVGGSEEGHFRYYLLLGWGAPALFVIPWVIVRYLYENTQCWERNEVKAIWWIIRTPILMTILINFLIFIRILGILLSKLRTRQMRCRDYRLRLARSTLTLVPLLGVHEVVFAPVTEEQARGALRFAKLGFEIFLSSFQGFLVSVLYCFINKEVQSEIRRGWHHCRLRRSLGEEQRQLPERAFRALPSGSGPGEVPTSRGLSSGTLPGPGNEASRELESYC
Procedure, shortened: (§1)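 Stable HEK293 clones expressing human GIP R or GLP-1 R, seeded 1 day before; cells washed in Tyrode's buffer (10 mM HEPES, pH 7.4), stimulated, then lysed. cAMP measured by AlphaScreen bead competition (1 h, room temperature, dark). EC50 = concentration giving half-maximal cAMP elevation, from curves of absolute cAMP (nM) vs log concentration.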

human GLP-1 R = target: T2, human GLP-1 R (Homo sapiens, UniProt P43220); experiment: Human GLP-1 receptor (GLP-1 R) activity assay, cAMP induction (AlphaScreen) in HEK293 cells; format: cell-based
T2 construct: expressed in transfected cells
T2 sequence (P43220 24-463): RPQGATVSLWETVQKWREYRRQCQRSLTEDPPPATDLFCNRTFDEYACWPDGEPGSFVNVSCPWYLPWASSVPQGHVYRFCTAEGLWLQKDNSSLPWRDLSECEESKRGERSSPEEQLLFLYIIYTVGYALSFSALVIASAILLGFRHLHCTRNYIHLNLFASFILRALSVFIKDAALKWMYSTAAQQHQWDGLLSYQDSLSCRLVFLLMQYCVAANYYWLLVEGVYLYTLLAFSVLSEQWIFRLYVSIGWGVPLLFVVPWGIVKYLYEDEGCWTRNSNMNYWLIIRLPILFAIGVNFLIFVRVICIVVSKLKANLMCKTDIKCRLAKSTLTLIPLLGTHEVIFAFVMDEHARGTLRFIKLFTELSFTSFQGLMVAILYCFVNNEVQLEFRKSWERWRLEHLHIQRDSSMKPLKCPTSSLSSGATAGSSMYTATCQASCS
Procedure, shortened: as §1

[1] = Table 3, most comprehensive data, read-out: hGIP-R cAMP EC50 average value
[2] = Table 3, most comprehensive data, read-out: hGLP-1-R cAMP EC50 average value

SMILES	EC50 (human GIP R; hGIP-R cAMP EC50 average value, Table 2, HEK293 cells expressing human GIP R)	EC50 (human GLP-1 R)	EC50 (human GIP R; [1])	EC50 (human GLP-1 R; [2])
CC[C@H](C)[C@H](NC(=O)[C@H](CO)NC(=O)[C@H](CC(C)C)NC(=O)[C@H](CC(=O)O)NC(=O)[C@H](CO)NC(=O)[C@@H](NC(=O)[C@H](Cc1ccccc1)NC(=O)[C@@H](NC(=O)CNC(=O)[C@H](CCC(=O)O)NC(=O)C(C)(C)NC(=O)[C@@H](N)Cc1ccc(O)cc1)[C@@H](C)O)[C@@H](C)O)C(=O)N[C@@H](C)C(=O)N[C@@H](CC(C)C)C(=O)N[C@@H](CC(=O)O)C(=O)N[C@@H](CCCCN)C(=O)N[C@@H](CCCCNC(=O)COCCOCCNC(=O)COCCOCCNC(=O)CC[C@H](NC(=O)CCCCCCCCCCCCCCCCC(=O)O)C(=O)O)C(=O)N[C@@H](C)C(=O)N[C@@H](CCC(N)=O)C(=O)N[C@@H](CCCNC(=N)N)C(=O)N[C@@H](C)C(=O)N[C@@H](Cc1ccccc1)C(=O)N[C@H](C(=O)N[C@@H](CC(N)=O)C(=O)N[C@@H](Cc1c[nH]c2ccccc12)C(=O)N[C@@H](CC(C)C)C(=O)N[C@H](C(=O)N[C@@H](C)C(=O)NC(C)(C)C(=O)N[C@@H](CCCCN)C(N)=O)C(C)C)C(C)C [Compound 20]	0.0097 nM	0.011 nM		
CC[C@H](C)[C@H](NC(=O)[C@H](CO)NC(=O)[C@H](Cc1ccc(O)cc1)NC(=O)[C@H](CC(=O)O)NC(=O)[C@H](CO)NC(=O)[C@@H](NC(=O)[C@H](Cc1ccccc1)NC(=O)[C@@H](NC(=O)CNC(=O)[C@H](CCC(=O)O)NC(=O)C(C)(C)NC(=O)[C@@H](N)Cc1ccc(O)cc1)[C@@H](C)O)[C@@H](C)O)C(=O)N[C@@H](C)C(=O)N[C@@H](CC(C)C)C(=O)N[C@@H](CC(=O)O)C(=O)N[C@@H](CCCCN)C(=O)N[C@@H](CCCCNC(=O)COCCOCCNC(=O)COCCOCCNC(=O)CC[C@H](NC(=O)CCCCCCCCCCCCCCCCCCC(=O)O)C(=O)O)C(=O)N[C@@H](C)C(=O)N[C@@H](CCC(N)=O)C(=O)N[C@@H](CCCNC(=N)N)C(=O)N[C@@H](C)C(=O)N[C@@H](Cc1ccccc1)C(=O)N[C@H](C(=O)N[C@@H](CCC(=O)O)C(=O)N[C@@H](Cc1c[nH]c2ccccc12)C(=O)N[C@@H](CC(C)C)C(=O)N[C@@H](CC(C)C)C(=O)N[C@@H](C)C(=O)N[C@@H](C)C(=O)N1CCC[C@H]1C(=O)N[C@@H](CO)C(=O)N[C@@H](CO)C(=O)NCC(=O)N[C@@H](C)C(=O)N1CCC[C@H]1C(=O)N1CCC[C@H]1C(=O)N1CCC[C@H]1C(=O)N[C@@H](CO)C(N)=O)C(C)C [Compound 40] (H-Y[Aib]EGTFTSDYSIALDKK([AEEA-AEEA-γGlu-C20 diacid])AQRAFVEWLLAAPSSGAPPPS-NH2)			0.023 nM	0.021 nM
CC[C@H](C)[C@H](NC(=O)[C@H](CO)NC(=O)[C@H](Cc1ccc(O)cc1)NC(=O)[C@H](CC(=O)O)NC(=O)[C@H](CO)NC(=O)[C@@H](NC(=O)[C@H](Cc1ccccc1)NC(=O)[C@@H](NC(=O)CNC(=O)[C@H](CCC(=O)O)NC(=O)C(C)(C)NC(=O)[C@@H](N)Cc1ccc(O)cc1)[C@@H](C)O)[C@@H](C)O)C(=O)N[C@@H](Cc1ccc(O)cc1)C(=O)N[C@@H](CC(C)C)C(=O)N[C@@H](CC(=O)O)C(=O)N[C@@H](CCCCN)C(=O)N[C@@H](CCCCNC(=O)COCCOCCNC(=O)COCCOCCNC(=O)[C@H](CN)NC(=O)CCCCCCCCCCCCCCCCCCC(=O)O)C(=O)N[C@@H](C)C(=O)N[C@@H](CCC(N)=O)C(=O)N[C@@H](CCCNC(=N)N)C(=O)N[C@@H](C)C(=O)N[C@@H](Cc1ccccc1)C(=O)N[C@H](C(=O)N[C@@H](CCC(=O)O)C(=O)N[C@@H](Cc1c[nH]c2ccccc12)C(=O)N[C@@H](CC(C)C)C(=O)N[C@@H](CC(C)C)C(=O)N[C@@H](C)C(=O)N[C@@H](CCC(N)=O)C(=O)NCC(=O)N1CCC[C@H]1C(=O)N[C@@H](CO)C(=O)N[C@@H](CO)C(=O)NCC(=O)N[C@@H](C)C(=O)N1CCC[C@H]1C(=O)N1CCC[C@H]1C(=O)N1CCC[C@H]1C(=O)N[C@@H](CO)C(N)=O)C(C)C [Compound 37] (H-Y[Aib]EGTFTSDYSIYLDKK([AEEA-AEEA-Dap-C20 diacid])AQRAFVEWLLAQGPSSGAPPPS-NH2)			0.017 nM	0.014 nM
CC[C@H](C)[C@H](NC(=O)[C@H](CO)NC(=O)[C@H](Cc1ccc(O)cc1)NC(=O)[C@H](CC(=O)O)NC(=O)[C@H](CO)NC(=O)[C@@H](NC(=O)[C@H](Cc1ccccc1)NC(=O)[C@@H](NC(=O)CNC(=O)[C@H](CCC(=O)O)NC(=O)C(C)(C)NC(=O)[C@@H](N)Cc1ccc(O)cc1)[C@@H](C)O)[C@@H](C)O)C(=O)N[C@@H](C)C(=O)N[C@@H](CC(C)C)C(=O)N[C@@H](CC(=O)O)C(=O)N[C@@H](CCCCN)C(=O)N[C@@H](CCCCNC(=O)COCCOCCNC(=O)COCCOCCNC(=O)CN1CCN(C(=O)CCCCCCCCCCCCCCCCCCC(=O)O)CC1)C(=O)N[C@@H](C)C(=O)N[C@@H](CCC(N)=O)C(=O)N[C@@H](CCCCN)C(=O)N[C@@H](CCC(=O)O)C(=O)N[C@@H](Cc1ccccc1)C(=O)N[C@H](C(=O)N[C@@H](CCC(=O)O)C(=O)N[C@@H](Cc1c[nH]c2ccccc12)C(=O)N[C@@H](CC(C)C)C(=O)N[C@@H](CC(C)C)C(=O)N[C@@H](C)C(=O)N[C@@H](C)C(=O)NCC(=O)N1CCC[C@H]1C(=O)N[C@@H](CO)C(=O)N[C@@H](CO)C(=O)NCC(=O)N[C@@H](C)C(=O)N1CCC[C@H]1C(=O)N1CCC[C@H]1C(=O)N1CCC[C@H]1C(=O)N[C@@H](CO)C(N)=O)C(C)C [Compound 53] (H-Y[Aib]EGTFTSDYSIALDKK([AEEA-AEEA-X1])AQKEFVEWLLAAGPSSGAPPPS-NH2)			0.006 nM	0.014 nM
CC[C@H](C)[C@H](NC(=O)[C@H](CO)NC(=O)[C@H](Cc1ccc(O)cc1)NC(=O)[C@H](CC(=O)O)NC(=O)[C@H](CO)NC(=O)[C@@H](NC(=O)[C@H](Cc1ccccc1)NC(=O)[C@@H](NC(=O)CNC(=O)[C@H](CCC(=O)O)NC(=O)C(C)(C)NC(=O)[C@@H](N)Cc1ccc(O)cc1)[C@@H](C)O)[C@@H](C)O)C(=O)N[C@@H](Cc1ccc(O)cc1)C(=O)N[C@@H](CC(C)C)C(=O)N[C@@H](CC(=O)O)C(=O)N[C@@H](CCCCN)C(=O)N[C@@H](CCCCNC(=O)COCCOCCNC(=O)COCCOCCNC(=O)CC[C@H](NC(=O)CCCCCCCCCCCCCCCCCCC(=O)O)C(=O)O)C(=O)N[C@@H](C)C(=O)N[C@@H](CCC(N)=O)C(=O)N[C@@H](CCCNC(=N)N)C(=O)N[C@@H](CCC(=O)O)C(=O)N[C@@H](Cc1ccccc1)C(=O)N[C@H](C(=O)N[C@@H](CCC(=O)O)C(=O)N[C@@H](Cc1c[nH]c2ccccc12)C(=O)N[C@@H](CC(C)C)C(=O)N[C@@H](CC(C)C)C(=O)N[C@@H](C)C(=O)N[C@@H](CCC(N)=O)C(=O)NCC(=O)N1CCC[C@H]1C(=O)N[C@@H](CO)C(=O)N[C@@H](CO)C(=O)NCC(=O)N[C@@H](C)C(=O)N1CCC[C@H]1C(=O)N1CCC[C@H]1C(=O)N1CCC[C@H]1C(=O)N[C@@H](CO)C(N)=O)C(C)C [Compound 46] (H-Y[Aib]EGTFTSDYSIYLDKK([AEEA-AEEA-γGlu-C20 diacid])AQREFVEWLLAQGPSSGAPPPS-NH2)			0.006 nM	0.01 nM
